Tests used:
[1] = system: rat ventral mesencephalan dopaminergic neurons; test: [3H]Dopamine cell culture assay (6-OHDA neurotoxicity); format: cell-based; conditions: 6-OHDA 30 μM, uptake 22 hrs after exposure
Experimental: Cultures of dopaminergic neurons were prepared according to a modification of the procedure described by Raymon and Leslie (J. Neurochem. 62:1015-1024, 1994). Time-mated pregnant rats were sacrificed on embyronic day 14-15 (crown rump length 11-12 mm) and the embryos removed by cesarean section. The ventral mesencephalon, containing the dopaminergic neurons, was dissected from each embryo. Tissue pieces from approximately 48 embryos were pooled and dissociated both enzymatically and mechanically. An aliquot from the resulting cell suspension was counted and the cells were plated in high glucose DMEM/F12 culture medium with 10% fetal bovine serum at a density of 1×10^5 cells/well of a Biocoat poly-D-lysine-coated 96-well plate. The day following plating was considered 1 day in vitro (DIV). Cells were maintained in a stable environment at 37° C., 95% humidity, and 5% CO2. A partial medium change was performed at 3 DIV. […]
[^3H]Dopamine uptake is used as a measure of the health and integrity of dopaminergic neurons in culture (Prochiantz et al., PNAS 76: 5387-5391, 1979). […] Briefly, cells treated with 6-OHDA in the presence and absence of 5-amino-anthra(9,1-cd)isothiazol-6-one were assessed in the uptake assay 22 hrs after exposure to 6-OHDA. […] Radioactivity was removed and the cultures were washed 3× with ice cold PBS. […]

[2] = Brain-blood plasma distribution in vivo; parameters: species or system Sprague-Dawley rats; conditions: rat, 10 mg/kg intravenously, 2 hr post-dose
Experimental: 5-Amino-anthra(9,1-cd)isothiazol-6-one was administered intravenously (10 mg/kg) into the veins of Sprague-Dawley rats. After 2 hr, blood samples were obtained from the animals and their vascular systems were perfused with approximately 100 mL of saline to rid their brains of blood. The brains were removed from the animals, weighed, and homogenized in a 50 mL conical tube containing 10 equivalents (w/v) of methanol/saline (1:1) using a Tissue Tearer (Fischer Scientific). The homogenized material was extracted by adding 600 μL of cold methanol to 250 μL of brain homogenate vortexed for 30 sec and subjected to centrifugation for 5 min. After centrifugation, 600 μL of the resulting supernatant was transferred to a clean tube and evaporated at room temperature under reduced pressure to provide a pellet. […] The brain homogenate analysis samples, plasma analysis samples, and standard analysis samples were analyzed and compared using HPLC by injecting 100 μL of a sample onto a 5 μm C-18 Luna column (4.6 mm×150 mm, commercially available from Phenomenex of Torrance, Calif.) and eluting at 1 mL/min with a linear gradient of 30% aqueous acetonitrile containing 0.1% trifluoroacetic acid to 90% aqueous acetonitrile containing 0.1% trifluoroacetic acid over 8 minutes and holding at 90% aqueous acetonitrile containing 0.1% trifluoroacetic acid for 3 min. with absorbance detection at 450 nm. […]

[3] = Solubility in aqueous media (remark); format: physicochemical

brain-drug concentration [2]: approximately 65 nmole/g
solubility in aqueous media [3]: limited solubility
SMILES: Nc1ccc2snc3c2c1C(=O)c1ccccc1-3 [5-amino-anthra(9,1-cd)isothiazol-6-one]
protection of dopaminergic neurons from 6-OHDA ([3H]dopamine uptake) [1]: protects rat ventral mesencephalan neurons from the toxic effects of 6-OHDA
